Test results reported in patent US5270332A, “Cholesteral lowering agents” (Merck & Co., Inc., priority 1992, dated 1993).
pIC50: −log10 of the molar value.

Key:
[1] = biological target: T1, squalene synthase (human HepG2 enzyme) (Homo sapiens, UniProt P37268); experiment: Squalene synthase assay, human HepG2 cell enzyme; assay type: biochemical; conditions: 3 μM 3H-farnesyl pyrophosphate, 30°, 20 minutes
T1 construct: The resulting pellet from the 100,000×g centrifugation, containing the squalene synthase, was resuspended in 5 ml of enzyme suspension buffer; endogenous in cells; host or cells: HepG2 cells (ATCC HB 8065), 100,000×g microsomal pellet
T1 sequence (P37268 1-417): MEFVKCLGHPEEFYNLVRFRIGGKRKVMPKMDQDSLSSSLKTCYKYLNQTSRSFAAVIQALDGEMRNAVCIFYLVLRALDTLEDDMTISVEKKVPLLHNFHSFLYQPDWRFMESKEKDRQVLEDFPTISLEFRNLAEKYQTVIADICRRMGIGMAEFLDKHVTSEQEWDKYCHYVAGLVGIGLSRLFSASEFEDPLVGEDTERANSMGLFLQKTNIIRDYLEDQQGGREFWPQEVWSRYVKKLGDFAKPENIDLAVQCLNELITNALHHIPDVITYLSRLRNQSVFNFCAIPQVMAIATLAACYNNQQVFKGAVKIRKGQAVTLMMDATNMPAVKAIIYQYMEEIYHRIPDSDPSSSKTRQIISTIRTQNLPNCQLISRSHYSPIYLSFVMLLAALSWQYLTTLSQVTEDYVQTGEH
Experimental: The intrinsic squalene synthase inhibitory activity of representative compounds of this invention was also measured by the standard in vitro protocol described below:
PREPARATION OF HUMAN HepG2 cell ENZYME
1. SOURCE: HEPG2 CELL LINE (Liver, hepatoblastoma, Human) ATCC No. HB 8065
2. CELL GROWTH AND MAINTENANCE
Culture Medium: Minimum essential medium (MEM) with non essential amino acids, sodium pyruvate, and 10% fetal bovine serum. The medium was changed twice weekly. […] The growth medium was prepared as listed below:
SUBCULTURE PROCEDURE: The medium was removed and washed with PBS (Phosphate-Buffered Saline 15.6 mM. pH 7.0). Fresh trypsin (0.25%)-EDTA (0.02%) with Hank's Balanced Salt solution was added and the flask was allowed to stand for a minute before the trypsin was removed. The flask was incubated at 37° C. until cells detached. Fresh medium was added and the cells were dispersed and dispensed into new flasks. Subcultivation ration: 1:6. […]
HARVEST: The medium was removed and the cells were washed with PBS. […] Cells 1 were counted (2.5×10^9 yield from 18 flasks (75cm^2)), and resuspended in 10 ml of 50 mM HEPES (N-[2-Hydroxyethyl]piperazine-N'-[2-ethane sulfonic acid]) containing 5 mM MgCl2, 2 mM MnCl2, 10 mM DTT, pH 7.5 (enzyme suspension buffer). […]

[2] = biological target: T2, squalene synthase (rat liver enzyme) (Rattus norvegicus, UniProt Q02769); experiment: Squalene synthase assay using rat liver microsomes; assay type: biochemical; conditions: [3H]farnesyl-pyrophosphate, 30° C., 20 minutes
T2 construct: from tissue; host or cells: liver microsomes of male Charles River CD rats fed 0.1% lovastatin for 4 days
T2 sequence (Q02769 1-416): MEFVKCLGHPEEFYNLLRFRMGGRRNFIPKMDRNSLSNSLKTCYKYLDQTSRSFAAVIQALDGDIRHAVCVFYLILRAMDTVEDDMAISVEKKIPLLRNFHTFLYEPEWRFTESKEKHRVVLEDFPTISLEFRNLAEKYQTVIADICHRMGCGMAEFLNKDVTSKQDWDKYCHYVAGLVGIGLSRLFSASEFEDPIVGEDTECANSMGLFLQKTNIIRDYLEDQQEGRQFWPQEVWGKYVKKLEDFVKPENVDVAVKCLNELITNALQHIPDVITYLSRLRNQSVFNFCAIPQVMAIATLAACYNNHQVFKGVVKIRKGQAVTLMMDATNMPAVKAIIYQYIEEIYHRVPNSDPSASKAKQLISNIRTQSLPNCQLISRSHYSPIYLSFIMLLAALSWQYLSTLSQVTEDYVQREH
Experimental: The squalene synthase assay using rat liver microsomes is described below:
Preparation of Rat Liver Microsomes
Male, Charles River CD rats (120 to 150 g) were fed a diet containing 0.1% lovastatin for 4 days. The livers from these rats were homogenized in 5 volumes (ml/g) of ice cold 50 mM HEPES (4-(2-hydroxyethyl)-1-piperazine ethanesulfonic acid), 5 mM EDTA (ethylenediaminetetraacetic acid) pH 7.5 with a Potter-Elvehjem type tissue grinder. The homogenate was centrifuged twice at 20,000×g for 15 minutes at 4° C., discarding the pellet each time. The supernatant was then centrifuged at 100,000×g for 1 hour at 4° C. The resulting microsomal pellet was resuspended in a volume of the above homogenizing buffer equal to one fifth the volume of the original homogenate. This microsomal preparation has a protein concentration of about 7 mg/ml. The microsomal suspensions were stored in aliquots at -70° C. […]
If a squalene epoxidase inhibitor (ingredient 7, above) is not used, the assay mix is degassed under a vacuum and flushed with N2. […] Five ml of scintillation fluid was added to the heptane solution and radioactivity was determined by liquid scintillation counting.
Percent inhibition is calculated by the formula: [formula]
IC50 values were determined by plotting the log of the concentration of the test compound versus the percentage inhibition. […]

Ras farnesylation = conditions: literature (Hancock et al.; Casey et al.; Schafer et al.); cited from earlier work

pIC50 [1]	pIC50 [2]	Compound	Inhibition of Ras farnesylation in vivo (Ras farnesylation)
7.51	8.25	CC(O)C(O)CCCCC=CCCCCC(=O)OC1C(O)C2(CCC(C)C(O)C(C)CC=Cc3ccccc3)OC(C(=O)O)C(O)(C(=O)O)C1(C(=O)O)O2 (stereo not shown) [Compound A]	
		CC[C@H](C)C(=O)O[C@H]1CCC=C2C=C[C@H](C)[C@H](CC[C@@H]3C[C@@H](O)CC(=O)O3)[C@H]21 [compactin]	Inhibition of Ras farnesylation in vivo has been demonstrated
		CC[C@H](C)C(=O)O[C@H]1C[C@@H](C)C=C2C=C[C@H](C)[C@H](CC[C@@H]3C[C@@H](O)CC(=O)O3)[C@H]21 [lovastatin]	Inhibition of Ras farnesylation in vivo has been demonstrated
